{
  "source": "paper PMC9126943",
  "about": "“ADAMTS4-specific MR probe to assess aortic aneurysms in vivo using synthetic peptide libraries” (Nature Communications, 2022)",
  "target": "T1, ADAMTS4 (Homo sapiens, UniProt O75173)",
  "T1 construct": "This is consistent with the recombinant proteins, we used in the screening process; purchased BioTeZ Berlin-Buch GmbH 30 400 102",
  "T1 sequence (O75173 213-685)": "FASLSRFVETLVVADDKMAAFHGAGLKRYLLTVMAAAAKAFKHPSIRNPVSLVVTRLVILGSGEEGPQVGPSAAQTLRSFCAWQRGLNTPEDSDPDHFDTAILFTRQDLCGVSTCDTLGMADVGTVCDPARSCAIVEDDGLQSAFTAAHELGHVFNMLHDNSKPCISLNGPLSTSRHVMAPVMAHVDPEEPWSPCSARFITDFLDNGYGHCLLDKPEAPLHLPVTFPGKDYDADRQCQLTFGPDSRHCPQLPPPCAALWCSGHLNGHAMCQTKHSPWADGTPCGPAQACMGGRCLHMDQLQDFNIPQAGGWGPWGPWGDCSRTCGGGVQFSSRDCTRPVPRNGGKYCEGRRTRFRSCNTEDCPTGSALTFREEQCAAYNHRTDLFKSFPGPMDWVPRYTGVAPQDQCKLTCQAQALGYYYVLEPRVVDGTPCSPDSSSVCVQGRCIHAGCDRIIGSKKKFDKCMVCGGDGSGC",
  "assay": "MST instrument, ligand-dependent fluorescence change, Cy5-labeled peptides vs ADAMTS4 (incl. alanine scan)",
  "format": "binding",
  "details": "Cy5-labeled peptide 3 nM, 25 °C, n = 3",
  "procedure": "Microscale thermophoresis (MST) was performed on a Monolith Pico (NanoTemper, Munich, Germany). The Cy5-labeled peptides were diluted into the MST buffer (150 mM NaCl, 50 mM TRIS-HCl, 5 mM CaCl2, and Tween-20) to reach a dilution of 6 nM. ADAMTS4, ADAMTS5, and ADAMTS1 were directly used with the supplied concentration. For ADAMTS4, the starting concentration was 4.96 µM, while for ADAMTS1 it was 4.88 µM and for ADAMTS5 it was 2.46 µM. […] 20 µl of the protein solutions were transferred into a PCR tube. 10 µl of this first vial was transferred into a second vial and mixed by pipetting with 10 µl of the MST buffer. The dilution series was continued 14 times. From tube 16, 10 µl were removed. Into all 16 tubes, 10 µl of the respective peptide solution were added and mixed by pipetting. The samples were incubated for 20 min and subsequently transferred to premium capillaries (NanoTemper, Munich, Germany). The capillaries were transferred into the Monolith tray and measured with 10% excitation power on the pico-red excitation on high MST power at 25 °C. Analysis was performed with MO.Affinity Analysis v3.0.1 (NanoTemper, Munich, Germany) and Origin 2022 (OriginLab Corporation, Northampton, MA). […] We checked for ADAMTS4 and the ADAMTS4-specific-Cy5-labeled probe via a saturation test for specifying the ligand-dependent fluorescence change. Therefore, the three highest ligand concentrations and the three lowest ligand concentrations of the measurement were used and centrifuged for 15 min at 16060 x g at 20 °C. Of each concentration, 7 µl were picked and mixed with 7 µl of a 10 M urea solution each. The samples were heated at 95 °C for 5 min and measured in the MST. […] Each measurement was repeated three times independently and the binding constant was calculated by merging all three measurements. […] The data were normalized using MO Affinity Analysis v3.0.1 and the fraction bound [−] was shown. […] Therefore, the percentage variance of the values to the average was plotted.\nAll measurements were performed with 10% LED power, high MST power and at 25 °C. The ligand dependent fluorescence change was used for determining the binding. […] The concentrations of the peptide were kept constant (3 nM in the measurement), while the proteins were diluted in the same manner as for ADAMTS4. […] The Cy5-labeled peptides (3 nM in the measurement) were kept constant, while ADAMTS4 was diluted in the same manner for each peptide (n=3 biologically independent measurements for each peptide; the data are presented as mean values ± SD). […] MST: microscale thermophoresis; nM: nanomolar; His: L-histidine; LED: light-emitting diode; n/a: not available; KD: binding constant.",
  "note": "Where a SMILES comes first, the peptide text is derived from it. Bridges are numbered along the chain shown (N, C = ends). The star is where a group is joined. Cy5(nonsulfonated) = CN1C(=CC=CC=CC2=[N+](CCCCCC(=O)*)c3ccccc3C2(C)C)C(C)(C)c2ccccc21",
  "data": [
    {"smiles": "C[N+]1=C(C=CC=CC=C2N(CCCCCC(=O)NCCCC[C@H](NC(=O)CNC(=O)CNC(=O)[C@H](CO)NC(=O)CNC(=O)CNC(=O)[C@H](CO)NC(=O)[C@@H]3CSSC[C@H](N)C(=O)N[C@@H](CO)C(=O)N[C@@H](CCCNC(=N)N)C(=O)N[C@@H](CCCNC(=N)N)C(=O)NCC(=O)N3)C(=O)NCC(N)=O)c3ccccc3C2(C)C)C(C)(C)c2ccccc21", "note": "[Cy5-labeled probe] (H-CSRRGCSGGSGGK(Cy5(nonsulfonated))G-NH2; disulfide 1-6; N-terminus and C-terminus assumed)", "values": [
      {"measurement": "binding to ADAMTS4 (ligand-dependent fluorescence change), in words", "result": "a ligand dependent fluorescence change occurs"}
    ]}
  ]
}
